System: WT‐UeGFP mice
Test: Hanging wire test (max 60 s), WT‐UeGFP mice
Assay type: in vivo
Set-up: Mean Diff. (wire hanging), vehicle vs. NU-9 / Mean (wire hanging): unit not given here
Settings: for Hanging wire test, group mean (Mean 1 / Mean 2): WT-UeGFP mice; for wire hanging, Average / Mean (wire hanging): WT-UeGFP
Method: hSOD1^G93A‐UeGFP, prpTDP‐43^A315T‐UeGFP and WT‐UeGFP mice were weighed and the required NU‐9 dose per weight was calculated (20 or 100 mg/kg), which was administered once daily by oral gavage, starting at postnatal day (P)60 and continuing until P120. Animals from the untreated group received the vehicle (NMP and olive oil) only. For oral administration purposes, 20 ga × 38 mm plastic feeding tubes were used (Instech Laboratories, Inc). The gavage tip was inserted into the mouth directly over the tongue and into the pharynx. While observing the swallowing reflex, the tip was safely and smoothly slid into the esophagus. Once the administration was completed, the gavage tip was pulled straight out.
Behavior data were collected from hSOD1^G93A‐UeGFP and WT‐UeGFP mice (starting at P60 and every 7 days until P116) and from prpTDP‐43^A315T‐UeGFP mice (at P60, P90, and P120) with the following number of mice for each group: WT‐UeGFP vehicle (n = 10), hSOD1^G93A‐UeGFP vehicle (n = 6), WT‐UeGFP 20 mg/kg/day NU‐9 (n = 5), hSOD1^G93A‐UeGFP 20 mg/kg/day NU‐9 (n = 7), WT‐UeGFP 100 mg/kg/day NU‐9 (n = 11), hSOD1^G93A‐UeGFP 100 mg/kg/day NU‐9 (n = 9), prpTDP‐43^A315T‐UeGFP untreated (n ≥ 3), and prpTDP‐43^A315T‐UeGFP 100 mg/kg/day NU‐9 (n = 4) (Table S3).
Mice were placed on a wire mesh, which was then inverted and suspended above the home cage; the time when the animal fell was recorded. This test was performed three times for a maximum of 60 s each session, with a 1‐min rest period between each trial. The average performance for each session is presented as the average of the three trials.

[1] = WT-UeGFP vehicle vs. NU-9 20 mg/kg/day, P102
[2] = WT-UeGFP vehicle vs. NU-9 20 mg/kg/day, P109
[3] = WT-UeGFP vehicle vs. NU-9 20 mg/kg/day, P116
[4] = WT-UeGFP vehicle vs. NU-9 100 mg/kg/day, P102
[5] = WT-UeGFP vehicle vs. NU-9 100 mg/kg/day, P109
[6] = WT-UeGFP vehicle vs. NU-9 100 mg/kg/day, P116

Q: What does the source list for C[C@H](Oc1cc(C(F)(F)F)cc(C(F)(F)F)c1)C1CC(=O)CC(=O)C1 [NU‐9]?
A: Hanging wire test, group mean (Mean 1 / Mean 2) (NU-9 20 mg/kg/day, P102, max 60 s): 60 s; Hanging wire test, group mean (Mean 1 / Mean 2) (NU-9 20 mg/kg/day, P109, max 60 s): 60 s; Hanging wire test, group mean (Mean 1 / Mean 2) (NU-9 20 mg/kg/day, P116, max 60 s): 60 s; Hanging wire test, group mean (Mean 1 / Mean 2) (NU-9 100 mg/kg/day, P102, max 60 s): 60 s; Hanging wire test, group mean (Mean 1 / Mean 2) (NU-9 100 mg/kg/day, P109, max 60 s): 60 s; Hanging wire test, group mean (Mean 1 / Mean 2) (NU-9 100 mg/kg/day, P116, max 60 s): 59.7 s; Mean Diff. (wire hanging), vehicle vs. NU-9 (WT-UeGFP vehicle vs. NU-9 20 mg/kg/day, P60): 0; Mean Diff. (wire hanging), vehicle vs. NU-9 (WT-UeGFP vehicle vs. NU-9 20 mg/kg/day, P67): 0.3333; Mean Diff. (wire hanging), vehicle vs. NU-9 (WT-UeGFP vehicle vs. NU-9 20 mg/kg/day, P74): 2.267; Mean Diff. (wire hanging), vehicle vs. NU-9 (WT-UeGFP vehicle vs. NU-9 20 mg/kg/day, P81): 0; Mean Diff. (wire hanging), vehicle vs. NU-9 (WT-UeGFP vehicle vs. NU-9 20 mg/kg/day, P88): 0; Mean Diff. (wire hanging), vehicle vs. NU-9 (WT-UeGFP vehicle vs. NU-9 20 mg/kg/day, P95): 2; Hanging wire test, mean difference vehicle minus NU-9 [1]: 0 s; Mean Diff. (wire hanging), vehicle vs. NU-9 [1]: 0; Hanging wire test, mean difference vehicle minus NU-9 [2]: 0 s; Mean Diff. (wire hanging), vehicle vs. NU-9 [2]: 0; Hanging wire test, mean difference vehicle minus NU-9 [3]: 0 s; Mean Diff. (wire hanging), vehicle vs. NU-9 [3]: 0; Mean Diff. (wire hanging), vehicle vs. NU-9 (WT-UeGFP vehicle vs. NU-9 100 mg/kg/day, P60): 1.273; Mean Diff. (wire hanging), vehicle vs. NU-9 (WT-UeGFP vehicle vs. NU-9 100 mg/kg/day, P67): 0; Mean Diff. (wire hanging), vehicle vs. NU-9 (WT-UeGFP vehicle vs. NU-9 100 mg/kg/day, P74): 0; Mean Diff. (wire hanging), vehicle vs. NU-9 (WT-UeGFP vehicle vs. NU-9 100 mg/kg/day, P81): 0; Mean Diff. (wire hanging), vehicle vs. NU-9 (WT-UeGFP vehicle vs. NU-9 100 mg/kg/day, P88): 0.1818; Mean Diff. (wire hanging), vehicle vs. NU-9 (WT-UeGFP vehicle vs. NU-9 100 mg/kg/day, P95): 0; Hanging wire test, mean difference vehicle minus NU-9 [4]: 0 s; Mean Diff. (wire hanging), vehicle vs. NU-9 [4]: 0; Hanging wire test, mean difference vehicle minus NU-9 [5]: 0 s; Mean Diff. (wire hanging), vehicle vs. NU-9 [5]: 0; Hanging wire test, mean difference vehicle minus NU-9 [6]: 0.303 s; Mean Diff. (wire hanging), vehicle vs. NU-9 [6]: 0.303; wire hanging, Average (NU-9 20 mg/kg/day po, P60): 60 s; wire hanging, Average (NU-9 20 mg/kg/day po, P67): 59.6667 s; wire hanging, Average (NU-9 20 mg/kg/day po, P74): 57.7333 s; wire hanging, Average (NU-9 20 mg/kg/day po, P81): 60 s; wire hanging, Average (NU-9 20 mg/kg/day po, P88): 60 s; wire hanging, Average (NU-9 20 mg/kg/day po, P95): 58 s; wire hanging, Average (NU-9 20 mg/kg/day po, P102): 60 s; wire hanging, Average (NU-9 20 mg/kg/day po, P109): 60 s; wire hanging, Average (NU-9 20 mg/kg/day po, P116): 60 s; Mean (wire hanging) (NU-9 20 mg/kg/day, P60): 60; Mean (wire hanging) (NU-9 20 mg/kg/day, P67): 59.67; Mean (wire hanging) (NU-9 20 mg/kg/day, P74): 57.73; Mean (wire hanging) (NU-9 20 mg/kg/day, P81): 60; Mean (wire hanging) (NU-9 20 mg/kg/day, P88): 60; Mean (wire hanging) (NU-9 20 mg/kg/day, P95): 58; wire hanging, Average (NU-9 100 mg/kg/day po, P60): 58.7273 s; wire hanging, Average (NU-9 100 mg/kg/day po, P67): 60 s; wire hanging, Average (NU-9 100 mg/kg/day po, P74): 60 s; wire hanging, Average (NU-9 100 mg/kg/day po, P81): 60 s; wire hanging, Average (NU-9 100 mg/kg/day po, P88): 59.8182 s; wire hanging, Average (NU-9 100 mg/kg/day po, P95): 60 s; wire hanging, Average (NU-9 100 mg/kg/day po, P102): 60 s; wire hanging, Average (NU-9 100 mg/kg/day po, P109): 60 s; wire hanging, Average (NU-9 100 mg/kg/day po, P116): 59.697 s; Mean (wire hanging) (NU-9 100 mg/kg/day, P60): 58.73; Mean (wire hanging) (NU-9 100 mg/kg/day, P67): 60; Mean (wire hanging) (NU-9 100 mg/kg/day, P74): 60; Mean (wire hanging) (NU-9 100 mg/kg/day, P81): 60; Mean (wire hanging) (NU-9 100 mg/kg/day, P88): 59.82; Mean (wire hanging) (NU-9 100 mg/kg/day, P95): 60
